In patent US20070258912A1, “Use of Fluorescent Whitening Agents as Antimicrobials” (priority 2004, published 2007):
Read-outs that look alike come from different tables or passages of the source.

How the values were obtained:
Assay type in all cases: cell-based
[1] = system: Staphylococcus epidermis; experiment: MIC in the agar incorporation test
Method: (§1) Determination of Minimum Inhibitory Concentration (MIC Values) in the Agar Incorporation Test
(§2) 1% stock solutions of the substances are prepared in an appropriate solvent and diluted in serial dilutions 1:2 (to yield end concentrations in the agar of 500-1.9 ppm). 0.3 ml of each dilution step is mixed with 15 ml of nutrient medium while the latter is still liquid. After the nutrient medium has solidified, 10 μl of each test strain in 0.85% NaCl solution are spotted onto the agar medium.
(§3) The plates are incubated at 37° C. for 24 hours and then the highest dilution (lowest concentration) of the test substance at which growth is no longer observable is determined.
(§4) Test Organisms: Staphylococcus aureus ATCC 6583 Staphylococcus epidermidis ATCC 12228 Corynebacterium xerosis ATCC 373 Propionibacterium acnes ATCC Escherichia coli ATCC 10536 Salmonella choleraesuis ATCC Klebsiella pneumoniae ATCC *Candida albicans ATCC 10231
(§5) *Aspergillus niger ATCC 6275

[2] = system: Klebsiella pneumoniae; experiment: MIC in the agar incorporation test; conditions: Mueller Hinton agar, 24 hours at 37° C.
Method: as §1, §2, §3, §4, §5

[3] = system: Propionibacterium acnes; experiment: MIC in the agar incorporation test; conditions: Cutibacterium acnes, read-out: MIC Propionibacterium acnes
Method: as §1, §2, §3, §4, §5

[4] = system: Corynebacterium xerosis; experiment: MIC in the agar incorporation test
Method: as §1, §2, §3, §4, §5

[5] = system: Staphylococcus aureus; experiment: MIC in the agar incorporation test
Method: as §1, §2, §3, §4, §5

[6] = system: Actinobacillus actinomycetemcomitans; experiment: MIC against oral microorganisms via broth dilution; conditions: Aggregatibacter actinomycetemcomitans, ATCC43718; broth dilution 0.94-15 ppm, 24 h aerobically with 10% CO2, ATCC 43718
Method: (§6) Determination of the Minimum Inhibition Concentration (MIC Value) Against Different Oral Microorganisms Via Broth Dilution
(§7) 1500 ppm stock solutions of the substances are prepared in ethanol and pipetted into the growth medium to yield concentrations between 0.94 and 15 ppm. Bacteria are taken from blood agar plates with cotton swabs and adjusted in the appropriate growth medium to yield an optical density corresponding to McFarland 0.5. This suspension is directly used in the case of F. nucleatum and P. nigrescens. For the other strains, the suspension is diluted 1:20. 0.1 ml of these bacterial suspensions are added to 2 ml of the substance solutions. After the incubation time, the tubes are assessed for growth (turbidity).
(§8) Test Organisms: *Actinobacillus actinomycetemcomitans ATCC 43718 *Stretococcus gordonii ATCC 10558 *Streptococcus mutans ATCC 33402 Actinomyces viscosus ATCC 43146 Fusobacterium nucleatum subsp. polymorphum ATCC 10953 Porphyromonas gingivalis ATCC 33277
(§9) Prevotella nigrescens ATCC 33563

[7] = system: Streptococcus mutans; experiment: MIC against oral microorganisms via broth dilution
Method: as §6, §7, §8, §9

[8] = system: Actinomyces viscosus; experiment: MIC against oral microorganisms via broth dilution
Method: as §6, §7, §8, §9

[9] = system: Porphyromnas gingivalis; experiment: MIC against oral microorganisms via broth dilution; conditions: read-out: MIC Porphyromnas gingivalis
Method: as §6, §7, §8, §9

[10] = system: Streptococcus gordonii; experiment: MIC against oral microorganisms via broth dilution
Method: as §6, §7, §8, §9

[11] = system: Fusobacterium nucleatum subsp. polymorphum; experiment: MIC against oral microorganisms via broth dilution; conditions: ATCC10953, broth dilution 0.94-15 ppm, 7-10 days at 37° C. anaerobically, ATCC 10953, read-out: MIC Fusobacterium nucleatum subsp. polymorphum
Method: as §6, §7, §8, §9

[12] = system: Prevotella nigrescens; experiment: MIC against oral microorganisms via broth dilution
Method: as §6, §7, §8, §9

[13] = system: Corynebacterium minutissimum; experiment: MIC in the agar incorporation test; conditions: read-out: MIC Corynebacterium minutissimum
[14] = system: Actinomyces viscosus ATCC 43146; experiment: Substantivity on hydroxyapatite and growth inhibition; conditions: 500 ppm ethanolic solution; discs pretreated with artificial saliva; 6 and 24 hours at 37° C.; vs untreated control
Method: Hydroxyapatite discs are incubated in artificial saliva (German Dental Magazine DZZ 5/2002) for 4 hrs under stirring, rinsed in NaCl, dried over night, and then incubated in ethanolic solutions of the test substances. Then all treated discs are put in 12 well Nucleon surface titre plates (one disc per well), and Caso Broth inoculated with the test strain. The titre plates are incubated at 37° C., samples are taken after 6 and 24 hrs and the colony count is determined by plate count.

[15] = system: Escherichia coli; experiment: MIC in the agar incorporation test; conditions: ATCC10536, agar incorporation, Mueller Hinton agar, 24 hours at 37° C., ATCC 10536, read-out: MIC Escherichia coli
Method: as §1, §2, §3, §4, §5

[16] = system: Salmonella choleraesuis; experiment: MIC in the agar incorporation test; conditions: Salmonella enterica, Mueller Hinton agar, 24 hours at 37° C.
Method: as §1, §2, §3, §4, §5

[17] = system: Actinomyces viscosus; experiment: Microbicidal activity (suspension test, plate count); conditions: 120 ppm, ATCC 43146; for Microbicidal activity Actinomyces viscosus 120 ppm/5 min: 5 min contact at 22° C.; for Microbicidal activity Actinomyces viscosus 120 ppm/30 min: 30 min contact at 22° C.
Method: (§10) Determination of Microbicidal Activity
(§11) 1 g stock solution with an appropriate concentration of test products are mixed with 8 g water and then inoculated with 1 ml of the selected test organisms. After a given contact period, aliquots are taken, inactivated and diluted. The number of surviving bacteria per ml incubation assay is determined by plate count. Proper inactivation by the inactivating medium used was checked each time.
(§12) Diluent: tryptone water for microorganisms
(§13) • (0.1% tryptone (Oxoid), 0.85% NaCl, deion. water) • deion. water for test substances • inactivating medium for detection of surviving microorganisms Growth medium: casein soybean peptone agar Inactivating Medium: tryptic soy broth special • (10% w/w Tween 80, 3% w/w Lecithine, 0.1% w/w L-Histidine, • 0.055% w/w Sodium thiosulfate) Test organisms: Staphylococcus aureus ATCC 6538 • Escherichia coli ATCC 10536 • Actinomyces viscosus ATCC 43146 • Corynebacterium xerosis ATCC 373 Test concentration: 120 ppm and 1200 ppm Contact times: 5 and 30 minutes at 22° C.
(§14) Incubation time: 24 h at 37° C.

[18] = system: Escherichia coli; experiment: as above; conditions: 120 ppm, ATCC 10536; for Microbicidal activity Escherichia coli 120 ppm/5 min: 5 min contact at 22° C.; for Microbicidal activity Escherichia coli 120 ppm/30 min: 30 min contact at 22° C.
Method: as §10, §11, §12, §13, §14

[19] = system: Corynebacterium xerosis; experiment: as above; conditions: 120 ppm, ATCC 373; for Microbicidal activity Corynebacterium xerosis 120 ppm/5 min: 5 min contact at 22° C.; for Microbicidal activity Corynebacterium xerosis 120 ppm/30 min: 30 min contact at 22° C.
Method: as §10, §11, §12, §13, §14

[20] = system: Staphylococcus aureus; experiment: as above; conditions: 120 ppm, ATCC 6538; for Microbicidal activity Staphylococcus aureus 120 ppm/5 min: 5 min contact at 22° C.; for Microbicidal activity Staphylococcus aureus 120 ppm/30 min: 30 min contact at 22° C.
Method: as §10, §11, §12, §13, §14

[21] = ATCC12228, agar incorporation, Mueller Hinton agar, 24 hours at 37° C., ATCC 12228, read-out: MIC Staphylococcus epidermis
[22] = agar incorporation, Mueller Hinton agar, 24 hours at 37° C.
[23] = ATCC373, agar incorporation, Mueller Hinton agar, 24 hours at 37° C., ATCC 373, read-out: MIC Corynebacterium xerosis
[24] = ATCC6583, agar incorporation, Mueller Hinton agar, 24 hours at 37° C., ATCC 6583, read-out: MIC Staphylococcus aureus
[25] = ATCC33402, broth dilution 0.94-15 ppm, 24 h aerobically with 10% CO2, ATCC 33402, read-out: MIC Streptococcus mutans
[26] = ATCC43146, broth dilution 0.94-15 ppm, 7-10 days at 37° C. anaerobically, ATCC 43146, read-out: MIC Actinomyces viscosus
[27] = broth dilution 0.94-15 ppm, Columbia bouillon, 7-10 days at 37° C. anaerobically, ATCC 33277
[28] = ATCC10558, broth dilution 0.94-15 ppm, 24 h aerobically with 10% CO2, ATCC 10558, read-out: MIC Streptococcus gordonii
[29] = ATCC33563, broth dilution 0.94-15 ppm, Columbia bouillon, 7-10 days at 37° C. anaerobically, ATCC 33563, read-out: MIC Prevotella nigrescens

CCN(CC)CCOc1ccccc1/C=C/c1ccc(/C=C/c2ccccc2OCCN(CC)CC)cc1 [formula 24]
MIC [1, 21]: 7.5 µg/mL | MIC [2]: 120 µg/mL | MIC [3, 22]: 3.8 µg/mL | MIC [4, 23]: 3.8 µg/mL | MIC [5, 24]: 7.5 µg/mL | MIC [6]: 15 µg/mL | MIC [7, 25]: 7.5 µg/mL | MIC [8, 26]: 3.75 µg/mL | MIC [9, 27]: 1.9 µg/mL | MIC [10, 28]: 7.5 µg/mL | MIC [11]: 15 µg/mL | MIC [12, 29]: 1.9 µg/mL | MIC [13, 22]: 3.8 µg/mL | Growth inhibition of Actinomyces viscosus after adsorption on hydroxyapatite discs [14]: growth inhibition

CN(C)CCCOc1ccccc1/C=C/c1ccc(/C=C/c2ccccc2OCCCN(C)C)cc1 [formula 26]
MIC [1, 21]: 6.3 µg/mL | MIC [2]: 25 µg/mL | MIC [3, 22]: 12.5 µg/mL | MIC [15]: 200 µg/mL | MIC [4, 23]: 3.1 µg/mL | MIC [16]: 200 µg/mL | MIC [5, 24]: 6.3 µg/mL | MIC [6]: 15 µg/mL | MIC [7, 25]: 3.8 µg/mL | MIC [8, 26]: 3.8 µg/mL | MIC [9, 27]: 3.8 µg/mL | MIC [10, 28]: 7.5 µg/mL | MIC [11]: 3.8 µg/mL | MIC [12, 29]: 1.9 µg/mL | Microbicidal activity Actinomyces viscosus 120 ppm/5 min [17]: 0 log reductions | Microbicidal activity Actinomyces viscosus 120 ppm/30 min [17]: 3.7 log reductions | Microbicidal activity Escherichia coli 120 ppm/5 min [18]: 4.5 log reduction | Microbicidal activity Escherichia coli 120 ppm/30 min [18]: 5 log reduction | Microbicidal activity Corynebacterium xerosis 120 ppm/5 min [19]: 2.9 log reductions | Microbicidal activity Corynebacterium xerosis 120 ppm/30 min [19]: 5 log reductions | Microbicidal activity Staphylococcus aureus 120 ppm/5 min [20]: 0 log reduction | Microbicidal activity Staphylococcus aureus 120 ppm/30 min [20]: 4 log reduction | MIC [13, 22]: 6.3 µg/mL

CC[N+](C)(C)CCCOc1ccccc1/C=C/c1ccc(-c2ccc(/C=C/c3ccccc3OCCC[N+](C)(C)CC)cc2)cc1 [formula 33]
MIC ([1]; ATCC12228, 24 h, read-out: MIC Staphylococcus epidermis): 3.9 µg/mL | MIC ([3]; 24 h): 3.9 µg/mL | MIC ([4]; ATCC373, 24 h, read-out: MIC Corynebacterium xerosis): 31.3 µg/mL | MIC ([5]; ATCC6583, 24 h, read-out: MIC Staphylococcus aureus): 3.9 µg/mL | MIC ([7]; ATCC33402, 24 h, read-out: MIC Streptococcus mutans): 1.88 µg/mL | MIC ([8]; ATCC43146, read-out: MIC Actinomyces viscosus): 3.8 µg/mL | MIC [9]: 15 µg/mL | MIC ([10]; ATCC10558, 24 h, read-out: MIC Streptococcus gordonii): 3.75 µg/mL | MIC ([12]; ATCC33563, read-out: MIC Prevotella nigrescens): 3.75 µg/mL | MIC ([13]; 24 h): 7.8 µg/mL | Growth inhibition of Actinomyces viscosus after adsorption on hydroxyapatite discs [14]: growth inhibition

Cc1ccc(/C=C/c2ccc(/C=C/c3cccc(OCCCN(C)C)c3)cc2)c(OCCN(C)C)c1 [formula 29]
MIC [1, 21]: 3.1 µg/mL | MIC [2]: 25 µg/mL | MIC [3, 22]: 3.1 µg/mL | MIC [15]: 200 µg/mL | MIC [4, 23]: 3.1 µg/mL | MIC [16]: 200 µg/mL | MIC [5, 24]: 3.1 µg/mL | MIC [6]: 7.5 µg/mL | MIC [7, 25]: 3.8 µg/mL | MIC [8, 26]: 3.8 µg/mL | MIC [9, 27]: 1.9 µg/mL | MIC [10, 28]: 7.5 µg/mL | MIC [11]: 3.8 µg/mL | MIC [12, 29]: 1.9 µg/mL | Microbicidal activity Actinomyces viscosus 120 ppm/5 min [17]: 2.5 log reductions | Microbicidal activity Actinomyces viscosus 120 ppm/30 min [17]: 5 log reductions | Microbicidal activity Escherichia coli 120 ppm/5 min [18]: 5 log reduction | Microbicidal activity Escherichia coli 120 ppm/30 min [18]: 5 log reduction | Microbicidal activity Corynebacterium xerosis 120 ppm/5 min [19]: 5 log reductions | Microbicidal activity Corynebacterium xerosis 120 ppm/30 min [19]: 5 log reductions | Microbicidal activity Staphylococcus aureus 120 ppm/5 min [20]: 3 log reduction | Microbicidal activity Staphylococcus aureus 120 ppm/30 min [20]: 5 log reduction | MIC [13, 22]: 6.3 µg/mL
